According to the supplement of paper PMC5908809:

What was measured:
[1] = test system: normal NK cells expanded with K562-aAPC; experiment: percent inhibition of viability; higher = more inhibition; settings: 72 h, IL-2 2.5 ng/mL
Protocol: (§1)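 Drug sensitivity and resistance testing on K562-aAPC-expanded normal NK cells: 5 concentrations (10-fold steps over a 10,000-fold range), 72 h at 37 °C, viability by CellTiter-Glo normalised to DMSO and benzethonium chloride controls; DSS from the fitted curve.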

[2] = test system: DERL-7 (IL-2 2.5 ng/mL); experiment: as above; settings: 72 h
[3] = test system: IMC-1 (IL-2 20 ng/mL); experiment: as above; settings: 72 h
[4] = test system: KAI3 (IL-2 2.5 ng/mL); experiment: as above; settings: 72 h
[5] = test system: KHYG-1 (IL-2 2.5 ng/mL); experiment: as above; settings: 72 h
[6] = test system: NK-92 (IL-2 2.5 ng/mL); experiment: as above; settings: 72 h
[7] = test system: NK-YS (IL-2 2.5 ng/mL); experiment: as above; settings: 72 h
[8] = test system: NKL (IL-2 2.5 ng/mL); experiment: as above; settings: 72 h
[9] = test system: SNK-6 (IL-2 2.5 ng/mL); experiment: as above; settings: 72 h
[10] = test system: YT (IL-2 2.5 ng/mL); experiment: as above; settings: 72 h
[11] = test system: normal primary NK cells, pool 1 (3 donors) (IL-2 2.5 ng/mL); experiment: as above; settings: 72 h
[12] = test system: normal primary NK cells, pool 1 (3 donors), resting (IL-2 0 ng/mL); experiment: as above; settings: 72 h
[13] = test system: normal primary NK cells, pool 2 (3 donors) (IL-2 2.5 ng/mL); experiment: as above; settings: 72 h
[14] = test system: normal primary NK cells, pool 3 (3 donors) (IL-2 2.5 ng/mL); experiment: as above; settings: 72 h
[15] = test system: normal NK cells expanded with K562-aAPC; experiment: drug sensitivity score (DSS) (DSS units); higher = more sensitive; extreme values may be limits of the assay; settings: 72 h; IL-2 2.5 ng/mL
Protocol: as §1

[16] = test system: DERL-7 (IL-2 2.5 ng/mL); experiment: as above; settings: 72 h
[17] = test system: IMC-1 (IL-2 20 ng/mL); experiment: as above; settings: 72 h
[18] = test system: KAI3 (IL-2 2.5 ng/mL); experiment: as above; settings: 72 h
[19] = test system: KHYG-1 (IL-2 2.5 ng/mL); experiment: as above; settings: 72 h
[20] = test system: NK-92 (IL-2 2.5 ng/mL); experiment: as above; settings: 72 h
[21] = test system: NK-YS (IL-2 2.5 ng/mL); experiment: as above; settings: 72 h
[22] = test system: NKL (IL-2 2.5 ng/mL); experiment: as above; settings: 72 h
[23] = test system: SNK-6 (IL-2 2.5 ng/mL); experiment: as above; settings: 72 h
[24] = test system: YT (IL-2 2.5 ng/mL); experiment: as above; settings: 72 h
[25] = test system: normal primary NK cells, pool 1 (3 donors) (IL-2 2.5 ng/mL); experiment: as above; settings: 72 h
[26] = test system: normal primary NK cells, pool 1 (3 donors), resting (IL-2 0 ng/mL); experiment: as above; settings: 72 h
[27] = test system: normal primary NK cells, pool 2 (3 donors) (IL-2 2.5 ng/mL); experiment: as above; settings: 72 h
[28] = test system: normal primary NK cells, pool 3 (3 donors) (IL-2 2.5 ng/mL); experiment: as above; settings: 72 h

CN(C)CCOc1ccc(/C(=C(/CCCl)c2ccccc2)c2ccccc2)cc1 [Toremifene] (max concentration tested 10000 nM)
percent inhibition of viability [%]
Settings | 1 nM | 10 nM | 100 nM | 1000 nM | 10000 nM
[1] | -7.54 | -7.98 | -6.66 | -5.37 | 22.4
[2] | 1.82 | 1.64 | 5.42 | 24.2 | 53.5
[3] | -0.16 | 2.16 | -3.63 | 1.2 | 10.6
[4] | 8.55 | 1.95 | 5.19 | 8.64 | 60.7
[5] | -7.33 | 4.52 | -9.46 | 6.72 | 42
[6] | -4.85 | -1.12 | 2.18 | 6.43 | 54.2
[7] | 1.32 | -4.28 | -2.7 | -0.4 | 25.6
[8] | 7.08 | 8.77 | -8.23 | 8.2 | 32.7
[9] | 13 | 30.5 | -2.4 | 28.2 | 29
[10] | -5.23 | 2.7 | -3.67 | 5.54 | 33
[11] | -5.3 | -17.6 | -3 | -8.46 | 64.3
[12] | -10.2 | -1.02 | 4.14 | 7.87 | 82.2
[13] | -4.96 | -0.07 | -1.79 | 3.55 | 49
[14] | -2.58 | -5.78 | 0.52 | 5.83 | 23.4

Settings | drug sensitivity score
[15] | 0.54
[16] | 5.52
[17] | 0.01
[18] | 4.76
[19] | 3.24
[20] | 3.98
[21] | 0.96
[22] | 2.74
[23] | 6.85
[24] | 2.42
[25] | 2.96
[26] | 5.83
[27] | 3.11
[28] | 1.64

CC(=O)Nc1cccc(-n2c(=O)n(C3CC3)c(=O)c3c(Nc4ccc(I)cc4F)n(C)c(=O)c(C)c32)c1 [Trametinib] (max concentration tested 250 nM)
percent inhibition of viability [%]
Settings | 0.025 nM | 0.25 nM | 2.5 nM | 25 nM | 250 nM
[1] | -1.03 | -2.71 | -0.52 | -0.63 | 1.09
[2] | 1.02 | 7.15 | 24.3 | 38.5 | 49.2
[3] | -7.84 | -6.23 | -12.6 | -5.74 | -11.9
[4] | -0.65 | 10.4 | 14.7 | 17.6 | 21.2
[5] | -1.89 | -0.88 | 17.2 | 47.1 | 54.2
[6] | -8.96 | -8.36 | -15.1 | -31.2 | -2.14
[7] | -3.76 | 0.79 | 3.16 | 13.2 | 9.03
[8] | -13.6 | -3.27 | 31.2 | 60.9 | 62.5
[9] | 8.07 | 2.1 | -22.8 | -18.2 | -19.1
[10] | -2.64 | -1.54 | 0.86 | 2.64 | -0.71
[11] | -8.95 | -7.23 | 10.8 | 8.62 | 17.9
[12] | -7.3 | -4.37 | 3.53 | -1.6 | 4.62
[13] | -4.75 | -6.13 | -1.09 | 4.26 | -5.37
[14] | -14.5 | -14.1 | -12 | -11.3 | -11.4

Settings | drug sensitivity score
[15] | 0
[16] | 10.2
[17] | 0.89
[18] | 4.13
[19] | 10.7
[20] | 0.89
[21] | 1.13
[22] | 15.5
[23] | 0
[24] | 0
[25] | 1.13
[26] | 0
[27] | 0
[28] | 0.89
